Data: ChEMBL document CHEMBL3259791, “Discovery of (E)-3-((styrylsulfonyl)methyl)pyridine and (E)-2-((styrylsulfonyl)methyl)pyridine derivatives as anticancer agents: synthesis, structure-activity relationships, and biological activities” (J Med Chem, 2014)
Active and inactive are the calls of the source. The rule behind the calls is not given here.

Tests used:
[1] = Elimination half life in mouse at 40 mg/kg, po after 24 hrs; type: ADME, organism-based; parameters: dose 40 mg/kg, route oral; conditions: in vivo, read-out: beta t1/2 (converted)
HeLa [2] = test: Selectivity ratio of IC50 for human WI38 cells to IC50 for human HeLa cells; type: functional
A2780 [3] = test: Induction of apoptosis in human A2780 cells assessed as caspase-3/7 activation at 0.06 uM after 24 hrs by using Apo-ONE homogeneous caspase-3/7 kit; type: functional, cell-based
[4] = Oral bioavailability (0 to t) in mouse at 40 mg/kg after 24 hrs; type: ADME, organism-based; conditions: in vivo
LNCaP = test: Ratio of ON01910 IC50 to compound IC50 for AR positive human LNCAP cells; type: functional
MDA-MB-231 = test: Ratio of ON01910 IC50 to compound IC50 for ER negative human MDA-MB-231 cells; type: functional
HeLa [5] = test: Ratio of ON01910 IC50 to compound IC50 for human HeLa cells; type: functional
A2780 [6] = test: Reduction in CDC25C level in human A2780 cells at 0.03 uM after 24 hrs by Western blot analysis; type: functional, cell-based
A2780 [7] = test: Antitumor activity against human A2780 cells xenografted in mouse assessed as delay tumor growth at 50 mg/kg, po administered every second day for 2 weeks; type: functional
A2780 [8] = test: Ratio of ON01910 IC50 to compound IC50 for human A2780 cells; type: functional
PANC-1 = test: Ratio of ON01910 IC50 to compound IC50 for human PANC1 cells; type: functional
A2780 [9] = test: Reduction in Mcl1 level in human A2780 cells at 1 uM after 24 hrs by Western blot analysis; type: functional, cell-based
[10] = Elimination half life in mouse at 10 mg/kg, po after 24 hrs; type: ADME, organism-based; parameters: dose 10 mg/kg, route oral; conditions: in vivo, read-out: beta t1/2 (converted)

For COc1cc(OC)c(/C=C/S(=O)(=O)Cc2ccc(OC)c(N)n2)c(OC)c1, the half-life [1] was 77.1 h, the “Ratio IC50” value (HeLa [2]) was greater than 1400 and the Activity (A2780 [3]) was “Active”. The bioavailability [4] was 44%, the “Ratio IC50” value (LNCaP) was 10 and the “Ratio IC50” value (MDA-MB-231) was 10. For the same compound, the “Ratio IC50” value (HeLa [5]) was 10, the inhibition (A2780 [6]) was “Active” and the Activity (A2780 [7]) was 52%. For the same compound, the “Ratio IC50” value (A2780 [8]) was 10 and the “Ratio IC50” value (PANC-1) was 10.

With COc1cc(OC)c(/C=C/S(=O)(=O)Cc2ccc(OC)c(NS(C)(=O)=O)n2)c(OC)c1 the inhibition (A2780 [9]) was “Active” and the half-life [10] was 4.6 h.
